The supplement of paper PMC10307832

What was measured:
Test in all cases: relative viability (nuclei count vs DMSO), 5 days (fraction); higher = more cells survive
Avagacestat = compound: NC(=O)[C@@H](CCC(F)(F)F)N(Cc1ccc(-c2ncon2)cc1F)S(=O)(=O)c1ccc(Cl)cc1 [Avagacestat]
Outline: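 Only plates meeting two conditions passed: control CV below 25% and at least one doubling. Lung cancer cell lines, kept overnight at 37 °C in 1536-well plates, were pinned with five library-drug doses (not always all listed) √10 apart on vehicle-anchored plates and grown 5 days without medium change. A one-step fix, permeabilisation and Hoechst stain preceded 4× imaging and MetaXpress nuclear counting. Viability equals treated-well nuclei divided by vehicle-well nuclei, as the median over plates.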

Avagacestat + Navitoclax = compound: NC(=O)[C@@H](CCC(F)(F)F)N(Cc1ccc(-c2ncon2)cc1F)S(=O)(=O)c1ccc(Cl)cc1 [Avagacestat] + CC1(C)CCC(c2ccc(Cl)cc2)=C(CN2CCN(c3ccc(C(=O)NS(=O)(=O)c4ccc(N[C@H](CCN5CCOCC5)CSc5ccccc5)c(S(=O)(=O)C(F)(F)F)c4)cc3)CC2)C1 [Navitoclax] (partner 0.5 µM)
Outline: (§1)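 Cells from lung cancer lines were seeded into 1536-well plates and, one day later, dosed by pin tool. Treatments were either a single drug or a fixed dose of an anchor drug with five library-drug doses (not always all listed) in √10 steps. After 5 days, nuclei were stained in a one-step fixation (final 0.05% Triton X-100, 1% formaldehyde, 1 ug/ml Hoechst) and counted on 4× images, and relative viability is the treated-to-vehicle nuclei ratio, as the median of duplicate plates.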

Avagacestat + Tozasertib = compound: NC(=O)[C@@H](CCC(F)(F)F)N(Cc1ccc(-c2ncon2)cc1F)S(=O)(=O)c1ccc(Cl)cc1 [Avagacestat] + Cc1cc(Nc2cc(N3CCN(C)CC3)nc(Sc3ccc(NC(=O)C4CC4)cc3)n2)n[nH]1 [Tozasertib] (partner 0.1 µM)
Outline: as §1

Avagacestat + Phenformin = compound: NC(=O)[C@@H](CCC(F)(F)F)N(Cc1ccc(-c2ncon2)cc1F)S(=O)(=O)c1ccc(Cl)cc1 [Avagacestat] + N=C(N)NC(=N)NCCc1ccccc1 [Phenformin] (partner 250 µM)
Outline: as §1

Row | Cell Line | relative viability (Avagacestat; 0.08 µM) | relative viability (Avagacestat; 0.253 µM) | relative viability (Avagacestat; 0.8 µM) | relative viability (Avagacestat; 2.53 µM) | relative viability (Avagacestat; 8 µM) | relative viability (Avagacestat + Navitoclax; first compound 0.08 µM) | relative viability (Avagacestat + Navitoclax; first compound 0.253 µM) | relative viability (Avagacestat + Navitoclax; first compound 0.8 µM) | relative viability (Avagacestat + Navitoclax; first compound 2.53 µM) | relative viability (Avagacestat + Navitoclax; first compound 8 µM) | relative viability (Avagacestat + Tozasertib; first compound 0.08 µM) | relative viability (Avagacestat + Tozasertib; first compound 0.253 µM) | relative viability (Avagacestat + Tozasertib; first compound 0.8 µM) | relative viability (Avagacestat + Tozasertib; first compound 2.53 µM) | relative viability (Avagacestat + Tozasertib; first compound 8 µM) | relative viability (Avagacestat + Phenformin; first compound 0.08 µM) | relative viability (Avagacestat + Phenformin; first compound 0.253 µM) | relative viability (Avagacestat + Phenformin; first compound 0.8 µM) | relative viability (Avagacestat + Phenformin; first compound 2.53 µM) | relative viability (Avagacestat + Phenformin; first compound 8 µM)
1 | LCLC-97TM1 | 1.08 | 1.09 | 1.2 | 1 | 0.829 | 0.467 | 0.409 | 0.39 | 0.128 | 0.341 | 0.221 | 0.206 | 0.208 | 0.183 | 0.181 | 0.526 | 0.472 | 0.487 | 0.481 | 0.468
2 | LK-2 | 1.28 | 1.22 | 0.784 | 0.604 | 0.874 | 1.16 | 0.969 | 0.704 | 0.365 | 0.797 | 0.188 | 0.147 | 0.185 | 0.183 | 0.172 | 0.6 | 0.36 | 0.32 | 0.384 | 0.375
3 | LOU-NH91 | 1.05 | 0.881 | 1.14 | 0.917 | 0.968 | 0.69 | 0.723 | 0.684 | 0.531 | 0.646 | 0.621 | 0.63 | 0.648 | 0.609 | 0.624 | 0.708 | 0.652 | 0.862 | 0.717 | 0.754
4 | LU99A | 0.977 | 0.997 | 1.12 | 0.907 | 0.986 | 0.869 | 0.8 | 0.776 | 0.852 | 0.777 | 0.246 | 0.238 | 0.244 | 0.235 | 0.273 | 0.867 | 0.944 | 0.923 | 0.821 | 0.902
5 | LXF-289 | 0.995 | 1.05 | 1.05 | 0.994 | 0.975 | 0.964 | 0.996 | 1 | 1 | 0.885 | 0.19 | 0.119 | 0.211 | 0.131 | 0.212 | 0.516 | 0.505 | 0.495 | 0.495 | 0.476
6 | NCI-H23 | 1.01 | 1.08 | 1.17 | 1.03 | 0.944 | 0.876 | 0.993 | 0.99 | 0.877 | 0.943 | 0.378 | 0.535 | 0.406 | 0.362 | 0.359 | 0.941 | 0.86 | 0.761 | 0.859 | 0.851
7 | NCI-H322M | 0.916 | 0.833 | 0.97 | 0.74 | 0.846 | 1.24 | 1.16 | 1.22 | 1.14 | 1.07 | 0.491 | 0.51 | 0.5 | 0.454 | 0.474 | 0.733 | 0.748 | 0.712 | 0.69 | 0.65
8 | NCI-H441 | 1.32 | 1.61 | 1.09 | 1.24 | 0.794 | 0.504 | 0.491 | 1.01 | 0.49 | 0.668 | 0.968 | 0.715 | 0.529 | 0.683 | 0.483 | 1.23 | 0.957 | 1.02 | 0.917 | 0.676
9 | NCI-H460 | 1.09 | 1.31 | 1.03 | 0.942 | 0.951 |  | 1.92 | 1.37 | 0.759 | 1.15 | 0.616 | 0.651 | 0.492 | 0.156 | 0.155 | 0.597 | 0.866 | 0.771 | 0.337 | 0.379
10 | NCI-H520 | 1.04 | 1.08 | 1 | 0.918 | 0.825 | 1.16 | 1.15 | 1.06 | 0.95 | 1.06 | 0.417 | 0.48 | 0.42 | 0.3 | 0.36 | 0.648 | 0.612 | 0.494 | 0.436 | 0.529
11 | NCI-H596 | 1.06 | 0.986 | 0.985 | 1.04 | 0.936 | 1.21 | 1.02 | 0.928 | 0.792 | 0.865 | 0.979 | 0.784 | 0.774 | 0.754 | 0.827 | 0.78 | 0.717 | 0.867 | 0.699 | 0.653
12 | NCI-H647 | 0.992 | 1.07 | 1.13 | 0.922 | 0.899 | 1.27 | 1.5 | 1.31 | 1.02 | 0.952 |  | 0.319 | 0.199 | 0.263 | 0.0556 | 0.534 | 0.587 | 0.692 | 0.487 | 0.414
13 | NCI-H727 | 1.06 | 0.987 | 0.948 | 1.02 | 0.837 | 0.408 | 0.461 | 0.596 | 0.339 | 0.459 | 0.614 | 0.686 | 0.592 | 0.489 | 0.489 | 0.684 | 0.489 | 0.778 | 0.421 | 0.613
14 | NCI-H838 | 1.03 | 1.11 | 1.05 | 0.894 | 0.935 | 1.55 | 1.52 | 1.31 | 1.06 | 1.13 | 0.277 | 0.286 | 0.269 | 0.276 | 0.269 | 0.622 | 0.537 | 0.598 | 0.509 | 0.484
15 | NCI-H1355 | 1.07 | 1.2 | 1.03 | 0.876 | 0.874 | 1.14 | 0.999 | 0.923 | 0.768 | 0.833 | 0.523 | 0.534 | 0.593 | 0.454 | 0.392 | 0.499 | 0.441 | 0.465 | 0.422 | 0.41
16 | NCI-H1395 | 0.909 | 0.903 | 0.97 | 0.875 | 0.861 | 1.12 | 1.23 | 1.03 | 0.903 | 1.11 | 0.826 | 0.758 | 0.752 | 0.64 | 0.715 | 0.424 | 0.456 | 0.432 | 0.45 | 0.457
